Where two headings read alike, the source gives them in different places.
Experiments:
[1] = target: T1, 5-HT1A (Homo sapiens, UniProt P08908); assay: 5-HT1 Functional Assay (cAMP) in CHO/5-HT1A cells; format: cell-based; set-up: expressed in transfected cells; host or cells: CHO/5-HT1A cells
T1 sequence (P08908 1-422): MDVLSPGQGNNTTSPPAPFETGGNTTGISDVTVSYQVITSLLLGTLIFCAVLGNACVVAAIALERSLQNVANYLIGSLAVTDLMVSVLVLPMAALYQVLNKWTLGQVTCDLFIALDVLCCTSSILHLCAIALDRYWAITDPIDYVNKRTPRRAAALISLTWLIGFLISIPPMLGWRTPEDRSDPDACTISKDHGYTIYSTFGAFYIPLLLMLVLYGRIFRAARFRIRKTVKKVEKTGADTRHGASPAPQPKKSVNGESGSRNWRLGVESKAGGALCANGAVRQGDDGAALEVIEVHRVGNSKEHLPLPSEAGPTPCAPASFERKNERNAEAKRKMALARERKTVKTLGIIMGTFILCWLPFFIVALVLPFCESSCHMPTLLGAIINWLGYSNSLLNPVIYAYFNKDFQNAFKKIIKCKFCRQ
Description: 5-HT1 Functional Assay (cAMP)
CHO/5-HT1A cells were random seeded at a density of about 200,000/well in 24 well plates the day prior to the experiment. On the day of the experiment, cells were pretreated for 15 minutes at 37° C. with 500 μM isobutylmethylxantine (IBMX) dissolved in culture medium without serum. Wells were then divided in different groups in duplicate as follows: control, 10 μM FSK, 10 μM FSK+1 μM 5-HT as positive standard and 10 μM FSK+10 μM of the different compound under evaluation. Sample solutions were added and incubated for additional 15 minutes at 37° C. After incubation, the medium was aspirated and the reaction stopped by adding 200 μl of lysis buffer. Plates were shaken for 5 minutes, then the lysate was removed and samples were stored at 4° C. until the day of the assay. For the cAMP evaluation, samples were properly diluted and the cAMP content was measured by an enzyme immunoassay system.

[2] = target: T2, D4 human receptors (Homo sapiens, UniProt P21917); assay: D4 Radioligand Receptor Binding Assay ([3H] YM-09151-2, CHO cell membranes); details: compound 10^−7 M, singlicate, [3H] YM-09151-2 0.15-0.25 nM
T2 construct: expressed in transfected cells; host or cells: CHO cells
T2 sequence (P21917 1-419): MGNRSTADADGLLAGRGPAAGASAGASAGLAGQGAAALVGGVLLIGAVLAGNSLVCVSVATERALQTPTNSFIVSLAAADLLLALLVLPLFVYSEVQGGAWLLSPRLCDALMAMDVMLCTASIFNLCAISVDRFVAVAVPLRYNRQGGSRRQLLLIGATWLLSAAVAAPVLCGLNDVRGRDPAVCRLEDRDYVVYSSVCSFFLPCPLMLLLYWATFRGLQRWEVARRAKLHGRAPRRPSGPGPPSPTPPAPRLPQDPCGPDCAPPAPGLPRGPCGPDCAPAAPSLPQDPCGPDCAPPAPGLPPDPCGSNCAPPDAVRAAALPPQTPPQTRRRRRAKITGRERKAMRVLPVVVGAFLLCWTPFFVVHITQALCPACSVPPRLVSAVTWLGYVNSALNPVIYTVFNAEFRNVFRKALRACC
Description: D4 Radioligand Receptor Binding Assay
Membranes from CHO cells expressing D4 human receptors, were suspended in incubation buffer.
Binding assays were performed in MultiProbe 204 pipetting system (Packard), according to a predetermined mapping, consistent with the software Screen. The compounds were tested in singlicate at one concentration (10^−7 M) in a total volume of 1000 μl (980 μl of diluted membranes, 10 μl DMSO or unlabelled ligand and 10 μl of [^3H] YM-09151-2 (0.15-0.25 nM). After incubation for 120 minutes at 27° C., the reaction was stopped by rapid filtration through Tomtec Cell Harvester (48 wells) using Filtermat B (presoaked in 0.1% PEI) filters. Filters were washed with ice-cold 50 mM Tris-HCl (pH 7.4) buffer (9×700 μl), dried, covered with MeltiLex B/HS (Wallac) scintillator sheets and heated in oven at 80° C. to 90° C. for about 10 minutes, transferred into plastic sample bags (Wallac), sealed, and put into 1024 Beta Plate scintillation counter (Wallac). Non-specific binding was determined in the presence of clozapine dissolved in DMSO to a final concentration of 10^−5 M.
(§1) The specific radioligand binding to the receptor was defined by the difference between total binding and non-specific binding, determined in the presence of an excess of unlabelled ligand. Results were expressed as percentage of control specific binding obtained in the presence of the compounds.

[3] = target: T1, 5-HT1A; assay: 5HT1A Radioligand Receptor Binding Assay ([3H]-8-OH-DPAT, CHO cell membranes); set-up: expressed in transfected cells; host or cells: CHO cells; details: for inhibition at 0.1 µM / 5-HT1A Receptor Binding Assay % inhibition (10^−7 M): compound 10^−7 M, singlicate, [3H]-8-OH-DPAT 0.6-0.7 nM
Description: 5HT1A Radioligand Receptor Binding Assay
Membranes from CHO cells, expressing 5-HT1A human receptors were suspended in incubation buffer.
Binding assays were performed in MultiProbe 204 pipetting system (Packard), according to a predetermined mapping, consistent with the software Screen. The compounds were tested in singlicate at one concentration (10^−7 M) in a total volume of 1000 μl. 980 μl of diluted membranes, 10 μl DMSO or unlabelled ligand and 10 μl of [^3H]-8-OH-DPAT (0.6-0.7 nM) were incubated for 60 minutes at 27° C. The reaction was stopped by rapid filtration through Tomtec Cell Harvester (48 wells) using Filtermat B (presoaked in 0.1% PEI) filters. Filters were washed with ice-cold 50 mM Tris-HCl (pH 7.4) buffer (9×700 μl), dried, covered with MeltiLex B/HS scintillator sheets (Wallac) and heated at 80° C. to 90° C. for about 10 minutes, transferred into plastic sample bags (Wallac), sealed, and put into 1024 Beta Plate scintillation counter (Wallac). Non-specific binding was determined in the presence of 5-HT (10^−5 M).
as §1, with “compounds. The affinity values (IC50) for the compounds were obtained by a nonlinear least squares regression analysis on the basis of a one binding site model.” for “compounds.”

[4] = [3H]-8-OH-DPAT, CHO membranes, human 5-HT1A, read-out: 5-HT1A Receptor Binding IC50

| Compound | D4 Receptor Binding Assay % inhibition (10^−7 M) [2] [%] | 5-HT1A Receptor Binding Assay % inhibition (10^−7 M) ([3]; CHO membranes, human 5-HT1A) [%] | inhibition at 10 µM [1] [%] | IC50 [3, 4] [nM] | other results |
| --- | --- | --- | --- | --- | --- |
| O=c1n(CCN2CCOCC2)c2ccccc2n1CCN1CCN(c2cccc(C(F)(F)F)c2)CC1 [Compound 228] |  |  | 82 | 6 | inhibition at 0.1 µM [2]: 33%; inhibition at 0.1 µM ([3]; CHO membranes, human 5-HT1A): 95% |
| COCCn1c(=O)n(C/C=C\CN2CCN(c3cccc(C(F)(F)F)c3)CC2)c2ccccc21 [Compound 284] |  |  | 82 | 4.9 |  |
| COCCn1c(=O)n(C/C=C\CN2CC=C(c3ccccc3)CC2)c2ccccc21 [Compound 285] |  |  | 47 |  | inhibition at 0.1 µM [2]: 32%; IC50 [3]: 5.2 nM; inhibition at 0.1 µM ([3]; CHO membranes, human 5-HT1A): 96% |
| COCCn1c(=O)n(C/C=C/CN2CCN(c3cccc(C(F)(F)F)c3)CC2)c2ccccc21 [Compound 301] |  |  | 83 | 2.6 |  |
| O=c1n(C/C=C/CN2CCN(c3cccc(Cl)c3)CC2)c2ccccc2n1CCN1CCOCC1 [Compound 348] |  |  | 57 | 3.5 |  |
| O=c1n(C/C=C\CN2CCc3c([nH]c4ccccc34)C2)c2ccccc2n1CCO [Compound 367] | 90 | 61 |  |  |  |
| O=c1n(C/C=C\CN2CCN(c3ccc(Cl)c(Cl)c3)CC2)c2ccccc2n1CCO [Compound 371] | 95 | 59 |  |  |  |
| O=c1n(C/C=C/CN2CCN(c3ccccc3)CC2)c2ccccc2n1CCO [Compound 378] | 35 | 77 |  |  |  |
| O=c1n(C/C=C/CN2CCN(c3cccc(Cl)c3)CC2)c2ccccc2n1CCO [Compound 382] |  |  | 64 | 11 | inhibition at 0.1 µM [2]: 39%; inhibition at 0.1 µM ([3]; CHO membranes, human 5-HT1A): 88% |
| O=c1n(C/C=C/CN2CCN(c3cccc(C(F)(F)F)c3)CC2)c2ccccc2n1CCO [Compound 386] |  |  | 82 | 6.7 |  |
| CCNC(=O)OCCn1c(=O)n(C/C=C\CN2CCN(c3ccccc3)CC2)c2ccccc21 [Compound 395] | 32 | 86 |  |  |  |
| CCNC(=O)OCCn1c(=O)n(C/C=C\CN2CCN(c3cccc(C(F)(F)F)c3)CC2)c2ccccc21 [Compound 403] |  |  | 84 | 5.5 |  |
| CCNC(=O)OCCn1c(=O)n(C/C=C\CN2CC=C(c3ccccc3)CC2)c2ccccc21 [Compound 404] |  |  | 60 | 2.1 | inhibition at 0.1 µM [2]: 34%; inhibition at 0.1 µM ([3]; CHO membranes, human 5-HT1A): 95% |
| CCNC(=O)OCCn1c(=O)n(C/C=C/CN2CCN(c3ccccc3)CC2)c2ccccc21 [Compound 412] | 39 | 93 |  |  |  |
| CCNC(=O)OCCn1c(=O)n(C/C=C/CN2CCN(c3cccc(C(F)(F)F)c3)CC2)c2ccccc21 [Compound 420] |  |  | 87 | 1.8 |  |
| CCNC(=O)OCCn1c(=O)n(C/C=C/CN2CC=C(c3ccccc3)CC2)c2ccccc21 [Compound 421] |  |  | 56 | 0.66 |  |
| CC(=O)NCCn1c(=O)n(C/C=C/CN2CCN(c3cccc(C(F)(F)F)c3)CC2)c2ccccc21 [Compound 481] |  |  | 82 | 11 |  |
| CS(=O)(=O)NCCn1c(=O)n(C/C=C\CN2CCN(c3cccc(Cl)c3)CC2)c2ccccc21 [Compound 499] |  |  | 74 | 5 |  |
| CS(=O)(=O)NCCn1c(=O)n(C/C=C\CN2CCc3c([nH]c4ccccc34)C2)c2ccccc21 [Compound 501] | 63 | 70 |  |  |  |
| CS(=O)(=O)NCCn1c(=O)n(C/C=C/CN2CCN(c3cccc(C(F)(F)F)c3)CC2)c2ccccc21 [Compound 525] |  |  | 87 | 1.5 |  |

Further lines, with some results ahead:

| D4 Receptor Binding Assay % inhibition (10^−7 M) [2] [%] | 5-HT1A Receptor Binding Assay % inhibition (10^−7 M) ([3]; CHO membranes, human 5-HT1A) [%] | Compound | inhibition at 10 µM [1] [%] | IC50 [3, 4] [nM] | other results |
| --- | --- | --- | --- | --- | --- |
| 58 | 78 | CS(=O)(=O)NCCn1c(=O)n(C/C=C\CN2CCN(c3ccc(Cl)c(Cl)c3)CC2)c2ccccc21 [Compound 505] |  |  |  |
| 36 | 73 | CS(=O)(=O)NCCn1c(=O)n(C/C=C/CN2CCN(c3ccc(Cl)c(Cl)c3)CC2)c2ccccc21 [Compound 527] |  |  |  |
| 39 | 97 | COc1ccccc1N1CCN(C/C=C/Cn2c(=O)n(CCNS(C)(=O)=O)c3ccccc32)CC1 [Compound 535] |  |  |  |

From patent US6521623B1, “N,N'-disubstituted benzimidazolone derivatives with affinity at the serotonin and dopamine receptors” (Boehringer Ingelheim Pharma KG, priority 2000, dated 2003)
